Source: patent publication US20240327786A1, “NON-MAMMALIAN AQUATIC ANIMAL CELLS AND EXTRACTS” (Shah Caviar Limited, priority 2021, published 2024)

Tested on: sturgeon suspension cells
Experiment: Proliferation of sturgeon suspension cells treated with epigenetic modifiers (cell counts, Neubauer chamber)
Details: exposed once per week

Row | SMILES | proliferation compared to the standard culture | expansion factor (within 6 weeks, 30 μM, 100 μM, 300 μM, 1 mM and 3 mM) | expansion factor (within 4 weeks, 1 μM, 10 μM, 50 μM, 100 μM and 500 μM)
1 | CCCC(CCC)C(=O)O [valproic acid] | increase in proliferation | 8 | 
2 | CCCC(=O)O [butyric acid] | increase in proliferation |  | 16
